# Reference: patent US7998995B2 (Exelixis Patent Company LLC, priority 2006, dated 2011)
# Tested on: T1, LXR
# T1 construct: fused on or other part: GST fused to the LBD in the FRET assay
# Assay: Measured EC50 or IC50 for LXR (LXRα and/or LXRβ; assay and subtype not given)
# Settings: IC50 or EC50 class, subtype not specified
# Description: Measured EC50 or IC50 for LXR, and FXR for Compounds of the Invention
# LXR and FXR activities for various compounds of the invention are presented in the following table; those compounds with EC50 or IC50 values <10 μM for at least one of LXRα, LXRβ or FXR are considered to be active. In the following Table, IC50 or EC50 data is represented as follows: A<1 μM, B=1-10 μm, and C>10 μM.
row,Structure (SMILES),EC50 [µM]
1,"O=C(OCc1ccccc1)c1ccc(OCc2cc(C(F)(F)F)nn2-c2ccccc2Cl)cc1 [Example 7, phenylmethyl 4-({[1-(2-chlorophenyl)-3-(trifluoromethyl)-1H-pyrazol-5-yl]methyl}oxy)benzoate]",> 10
2,"FC(F)(F)c1cc(COc2ccc(-n3cccc3)cc2)n(-c2ccccc2Cl)n1 [Example 8, 1-(2-chlorophenyl)-5-({[4-(1H-pyrrol-1-yl)phenyl]oxy}methyl)-3-(trifluoromethyl)-1H-pyrazole]",< 1
3,"O=C(O)c1cc2cc(OCc3cc(C(F)(F)F)nn3-c3ccccc3Cl)ccc2[nH]1 [Example 9, 5-({[1-(2-chlorophenyl)-3-(trifluoromethyl)-1H-pyrazol-5-yl]methyl}oxy)-1H-indole-2-carboxylic acid]",> 10
4,"CCOC(=O)c1cc2cc(OCc3cc(C(F)(F)F)nn3-c3ccccc3Cl)ccc2[nH]1 [Example 38, ethyl 5-({[1-(2-chlorophenyl)-3-(trifluoromethyl)-1H-pyrazol-5-yl]methyl}oxy)-1H-indole-2-carboxylate]",> 10
5,"CC(C)(C(=O)O)c1cccc(-c2ccc(OCc3cc(C(F)(F)F)nn3-c3ccccc3Cl)cc2)c1 [Example 92, 2-[4′-({[1-(2-chlorophenyl)-3-(trifluoromethyl)-1H-pyrazol-5-yl]methyl}oxy)biphenyl-3-yl]-2-methylpropanoic acid]",1 to 10
6,"O=C(O)Cc1cccc(-c2ccc(OCc3cc(C(F)(F)F)nn3-c3ccccc3Cl)cc2)c1 [Example 93, [4′-({[1-(2-chlorophenyl)-3-(trifluoromethyl)-1H-pyrazol-5-yl]methyl}oxy)biphenyl-3-yl]acetic acid]",> 10
7,"O=C(Oc1cccc(OCc2cc(C(F)(F)F)nn2-c2ccccc2Cl)c1)c1ccccc1 [Example 95, 3-({[1-(2-chlorophenyl)-3-(trifluoromethyl)-1H-pyrazol-5-yl]methyl}oxy)phenyl benzoate]",> 10
8,"O=C(O)Cc1ccc(-c2ccc(OCc3cc(C(F)(F)F)nn3-c3ccccc3Cl)cc2)cc1 [Example 98, [4′-({[1-(2-chlorophenyl)-3-(trifluoromethyl)-1H-pyrazol-5-yl]methyl}oxy)biphenyl-4-yl]acetic acid]",> 10
9,"CC(C)Oc1ccccc1-n1nc(C(F)(F)F)cc1C(=O)NCc1cccc(C(F)(F)F)c1 [Example 104, 1-{2-[(1-methylethyl)oxy]phenyl}-3-(trifluoromethyl)-N-{[3-(trifluoromethyl)phenyl]methyl}-1H-pyrazole-5-carboxamide]",> 10

# Now from value to compound:
row,EC50 [µM],Structure (SMILES)
1,> 10,"CS(=O)(=O)c1cccc(NC(=O)c2cc(C(F)(F)F)nn2-c2cc(Cl)ccc2Cl)c1 [Example 99, 1-(2,5-dichlorophenyl)-N-[3-(methylsulfonyl)phenyl]-3-(trifluoromethyl)-1H-pyrazole-5-carboxamide]"
2,> 10,"O=C(NCc1cccc(C(F)(F)F)c1)c1cc(C(F)(F)F)nn1-c1cc(Cl)ccc1Cl [Example 100, 1-(2,5-dichlorophenyl)-3-(trifluoromethyl)-N-{[3-(trifluoromethyl)phenyl]methyl}-1H-pyrazole-5-carboxamide]"
3,> 10,"CS(=O)(=O)c1ccc(CNC(=O)c2cc(C(F)(F)F)nn2-c2cc(Cl)ccc2Cl)cc1 [Example 101, 1-(2,5-dichlorophenyl)-N-{[4-(methylsulfonyl)phenyl]methyl}-3-(trifluoromethyl)-1H-pyrazole-5-carboxamide]"
4,> 10,"O=C(NCc1cccc(Cl)c1)c1cc(C(F)(F)F)nn1-c1cc(Cl)ccc1Cl [Example 102, N-[(3-chlorophenyl)methyl]-1-(2,5-dichlorophenyl)-3-(trifluoromethyl)-1H-pyrazole-5-carboxamide]"
5,> 10,"CS(=O)(=O)c1cccc(CNC(=O)c2cc(C(F)(F)F)nn2-c2ccccc2Cl)c1 [Example 103, 1-(2-chlorophenyl)-N-{[3-(methylsulfonyl)phenyl]methyl}-3-(trifluoromethyl)-1H-pyrazole-5-carboxamide]"
